Measured values reported in patent publication EP0238905B1, “4-(2-pyrimidinyl)-1-piperazinyl heterocyclic carbonyl derivatives” (MERRELL DOW PHARMACEUTICALS INC., priority 1986, dated 1987).

Molecular target: T1, 5-HT1A recognition sites (Rattus norvegicus, UniProt P19327)
T1 construct: Tissues from 4-8 rats are pooled and homogenized in 70 vol Tris-HCl buffer; from tissue; host or cells: Sprague-Dawley rat frontal cortex membrane homogenate
T1 sequence (P19327 1-422): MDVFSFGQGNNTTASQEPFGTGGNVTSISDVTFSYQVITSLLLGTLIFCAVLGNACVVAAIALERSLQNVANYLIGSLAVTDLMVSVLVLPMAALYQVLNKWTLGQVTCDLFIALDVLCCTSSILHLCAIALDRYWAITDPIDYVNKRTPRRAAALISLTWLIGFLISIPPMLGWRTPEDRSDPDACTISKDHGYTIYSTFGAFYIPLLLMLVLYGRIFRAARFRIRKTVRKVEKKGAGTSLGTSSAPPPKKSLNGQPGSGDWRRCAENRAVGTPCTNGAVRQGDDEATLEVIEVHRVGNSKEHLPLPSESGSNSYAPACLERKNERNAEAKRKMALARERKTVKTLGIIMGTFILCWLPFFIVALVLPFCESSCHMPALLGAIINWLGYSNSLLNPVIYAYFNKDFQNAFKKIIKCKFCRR
Assay: In vitro 5-HT1A radioligand binding ([³H]-8-OH-DPAT)
Set-up: species or system Sprague-Dawley rat
Conditions: rat frontal cortex homogenate; radioligand [³H]-8-OH-DPAT; 37°C for 15 min; results expressed as pIC₅₀; read-out: 5-HT1A Binding Affinity Rat Brain cortex (converted)
Experimental: Radioligand binding studies of the 5-HT1A recognition sites are conducted in the following manner.
Radioactivity is measured following extraction into Aquasol-Z (NEN) at an efficiency of 45-50%.

CC1(C)CC(=O)OC(=NCCCCN2CCN(c3ncccn3)CC2)N1 [Compound B, 2-[4-[4-(2-pyrimidinyl)-1-piperazinyl]butylimino]-tetrahydro-4,4-dimethyl-6H-1,3-oxazine-6-one]
IC50: 0.479 µM
